Where a SMILES comes first, the peptide text is derived from it. The star is where a group is joined. X1 = O=C(O)c1ccc2c(c1)nc(OCCCCCCCCC(=O)*)c1ccncc12
What was measured:
Homo sapiens = species on record: Homo sapiens; experiment: Inhibition of human CK2 assessed as residual activity at 1 uM in presence of 33P-ATP by filter-binding assay relative to control
[1] = biological target: Dual specificity tyrosine-phosphorylation-regulated kinase 1A (Homo sapiens) (UniProt Q13627); experiment: Inhibition of human DYRK1A assessed as residual activity at 1 uM in presence of 33P-ATP by filter-binding assay relative to control
[2] = biological target: Mitogen-activated protein kinase 15 (Homo sapiens) (UniProt Q8TD08); experiment: Inhibition of human ERK8 assessed as residual activity at 1 uM in presence of 33P-ATP by filter-binding assay relative to control
[3] = biological target: Dual specificity protein kinase CLK2 (Homo sapiens) (UniProt P49760); experiment: Inhibition of human CLK2 assessed as residual activity at 1 uM in presence of 33P-ATP by filter-binding assay relative to control
[4] = biological target: Serine/threonine-protein kinase PLK1 (Homo sapiens) (UniProt P53350); experiment: Inhibition of human PLK1 assessed as residual activity at 1 uM in presence of 33P-ATP by filter-binding assay relative to control
[5] = biological target: Glycogen synthase kinase-3 beta (Homo sapiens) (UniProt P49841); experiment: Inhibition of human GSK3beta assessed as residual activity at 1 uM in presence of 33P-ATP by filter-binding assay relative to control
[6] = biological target: Ribosomal protein S6 kinase beta-1 (Homo sapiens) (UniProt P23443); experiment: Inhibition of human S6K1 assessed as residual activity at 1 uM in presence of 33P-ATP by filter-binding assay relative to control
[7] = biological target: Serine/threonine-protein kinase TBK1 (Homo sapiens) (UniProt Q9UHD2); experiment: Inhibition of human TBK1 assessed as residual activity at 1 uM in presence of 33P-ATP by filter-binding assay relative to control
[8] = biological target: Death-associated protein kinase 1 (Homo sapiens) (UniProt P53355); experiment: Inhibition of human DAPK1 assessed as residual activity at 1 uM in presence of 33P-ATP by filter-binding assay relative to control
[9] = biological target: Tyrosine-protein kinase JAK2 (Homo sapiens) (UniProt O60674); experiment: Inhibition of human JAK2 assessed as residual activity at 1 uM in presence of [33P]ATP by filter binding assay relative to control
[10] = biological target: Mitogen-activated protein kinase 9 (Homo sapiens) (UniProt P45984); experiment: Inhibition of human JNK2 assessed as residual activity at 1 uM in presence of [33P]ATP by filter binding assay relative to control
[11] = biological target: Insulin-like growth factor 1 receptor (Homo sapiens) (UniProt P08069); experiment: Inhibition of human IGF-1R assessed as residual activity at 1 uM in presence of [33P]ATP by filter binding assay relative to control
[12] = biological target: Serine/threonine-protein kinase 33 (Homo sapiens) (UniProt Q9BYT3); experiment: Inhibition of human STK33 assessed as residual activity at 1 uM in presence of [33P]ATP by filter binding assay relative to control
[13] = biological target: TGF-beta receptor type-1 (Homo sapiens) (UniProt P36897); experiment: Inhibition of human TGFBR1 assessed as residual activity at 1 uM in presence of [33P]ATP by filter binding assay relative to control
[14] = biological target: Dual specificity mitogen-activated protein kinase kinase 1 (Homo sapiens) (UniProt Q02750); experiment: Inhibition of human MKK1 assessed as residual activity at 1 uM in presence of [33P]ATP by filter binding assay relative to control
[15] = biological target: Serine/threonine-protein kinase N2 (Homo sapiens) (UniProt Q16513); experiment: Inhibition of human PRK2 assessed as residual activity at 1 uM in presence of [33P]ATP by filter binding assay relative to control
[16] = biological target: Serine/threonine-protein kinase 3 (Homo sapiens) (UniProt Q13188); experiment: Inhibition of human MST2 assessed as residual activity at 1 uM in presence of [33P]ATP by filter binding assay relative to control
[17] = biological target: Fibroblast growth factor receptor 1 (Homo sapiens) (UniProt P11362); experiment: Inhibition of human FGFR1 assessed as residual activity at 1 uM in presence of [33P]ATP by filter binding assay relative to control
[18] = biological target: Dual specificity testis-specific protein kinase 1 (Homo sapiens) (UniProt Q15569); experiment: Inhibition of human TESK1 assessed as residual activity at 1 uM in presence of [33P]ATP by filter binding assay relative to control
[19] = biological target: Ephrin type-B receptor 2 (Homo sapiens) (UniProt P29323); experiment: Inhibition of human EPH-B2 assessed as residual activity at 1 uM in presence of [33P]ATP by filter binding assay relative to control
[20] = biological target: Serine/threonine-protein kinase PAK 5 (Homo sapiens) (UniProt Q9P286); experiment: Inhibition of human PAK5 assessed as residual activity at 1 uM in presence of [33P]ATP by filter binding assay relative to control
[21] = biological target: Serine/threonine-protein kinase PAK 2 (Homo sapiens) (UniProt Q13177); experiment: Inhibition of human PAK2 assessed as residual activity at 1 uM in presence of [33P]ATP by filter binding assay relative to control
[22] = biological target: Serine/threonine-protein kinase SIK2 (Homo sapiens) (UniProt Q9H0K1); experiment: Inhibition of human SIK2 assessed as residual activity at 1 uM in presence of [33P]ATP by filter binding assay relative to control
[23] = biological target: RAC-beta serine/threonine-protein kinase (Homo sapiens) (UniProt P31751); experiment: Inhibition of human PKBb assessed as residual activity at 1 uM in presence of [33P]ATP by filter binding assay relative to control
[24] = biological target: Tyrosine-protein kinase ABL1 (Homo sapiens) (UniProt P00519); experiment: Inhibition of human ABL assessed as residual activity at 1 uM in presence of [33P]ATP by filter binding assay relative to control
[25] = biological target: Tau-tubulin kinase 2 (Homo sapiens) (UniProt Q6IQ55); experiment: Inhibition of human TTBK2 assessed as residual activity at 1 uM in presence of [33P]ATP by filter binding assay relative to control
[26] = biological target: Platelet-derived growth factor receptor alpha (Homo sapiens) (UniProt P16234); experiment: Inhibition of human PDGFRA assessed as residual activity at 1 uM in presence of [33P]ATP by filter binding assay relative to control
[27] = biological target: Tyrosine-protein kinase ZAP-70 (Homo sapiens) (UniProt P43403); experiment: Inhibition of human ZAP70 assessed as residual activity at 1 uM in presence of [33P]ATP by filter binding assay relative to control
[28] = biological target: Serine/threonine-protein kinase PAK 6 (Homo sapiens) (UniProt Q9NQU5); experiment: Inhibition of human PAK6 assessed as residual activity at 1 uM in presence of [33P]ATP by filter binding assay relative to control
[29] = tested on: Serine/threonine-protein kinase MAP4K2 (Homo sapiens); experiment: Inhibition of human GCK assessed as residual activity at 1 uM in presence of 33P-ATP by filter-binding assay relative to control

Glycogen synthase kinase-3 beta (Homo sapiens), sequence (P49841 whole entry, looked up): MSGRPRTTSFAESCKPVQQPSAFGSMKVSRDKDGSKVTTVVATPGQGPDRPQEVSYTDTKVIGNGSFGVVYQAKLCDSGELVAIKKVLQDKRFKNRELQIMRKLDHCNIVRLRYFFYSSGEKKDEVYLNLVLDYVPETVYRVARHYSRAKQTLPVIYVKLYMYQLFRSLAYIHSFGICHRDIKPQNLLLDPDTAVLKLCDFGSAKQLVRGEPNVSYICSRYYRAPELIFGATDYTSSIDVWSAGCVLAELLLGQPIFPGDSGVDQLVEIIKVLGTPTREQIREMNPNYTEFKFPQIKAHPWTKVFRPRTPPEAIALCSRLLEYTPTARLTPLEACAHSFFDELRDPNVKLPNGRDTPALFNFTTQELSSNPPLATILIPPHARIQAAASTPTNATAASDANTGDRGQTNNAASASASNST
Ribosomal protein S6 kinase beta-1 (Homo sapiens), sequence (P23443 whole entry, looked up): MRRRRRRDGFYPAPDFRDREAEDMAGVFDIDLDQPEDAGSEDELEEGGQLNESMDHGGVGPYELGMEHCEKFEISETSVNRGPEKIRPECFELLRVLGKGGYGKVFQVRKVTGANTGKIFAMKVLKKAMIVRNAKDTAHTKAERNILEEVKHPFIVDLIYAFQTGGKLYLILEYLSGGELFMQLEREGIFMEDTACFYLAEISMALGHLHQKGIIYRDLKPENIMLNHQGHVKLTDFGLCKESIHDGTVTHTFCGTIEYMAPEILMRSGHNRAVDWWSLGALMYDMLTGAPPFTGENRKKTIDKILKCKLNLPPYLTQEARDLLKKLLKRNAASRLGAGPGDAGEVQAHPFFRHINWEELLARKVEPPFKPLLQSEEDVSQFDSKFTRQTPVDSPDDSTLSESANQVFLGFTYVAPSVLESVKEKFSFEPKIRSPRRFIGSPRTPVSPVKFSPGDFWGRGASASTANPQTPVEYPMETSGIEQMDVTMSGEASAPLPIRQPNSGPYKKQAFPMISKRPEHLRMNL
TGF-beta receptor type-1 (Homo sapiens), sequence (P36897 whole entry): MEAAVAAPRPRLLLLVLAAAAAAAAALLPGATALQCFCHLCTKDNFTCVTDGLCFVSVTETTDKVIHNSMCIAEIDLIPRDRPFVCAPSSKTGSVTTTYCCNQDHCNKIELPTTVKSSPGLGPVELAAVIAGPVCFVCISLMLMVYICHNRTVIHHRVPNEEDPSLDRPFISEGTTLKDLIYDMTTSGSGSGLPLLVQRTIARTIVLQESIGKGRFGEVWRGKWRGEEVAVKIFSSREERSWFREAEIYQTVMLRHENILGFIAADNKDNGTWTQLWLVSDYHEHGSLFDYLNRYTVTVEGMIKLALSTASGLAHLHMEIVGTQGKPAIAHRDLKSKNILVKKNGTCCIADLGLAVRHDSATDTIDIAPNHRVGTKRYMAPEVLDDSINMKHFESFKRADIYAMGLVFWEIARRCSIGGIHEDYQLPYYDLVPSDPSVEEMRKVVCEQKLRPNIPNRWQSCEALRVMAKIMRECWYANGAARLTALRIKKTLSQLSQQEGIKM
Tyrosine-protein kinase JAK2 (Homo sapiens), sequence (O60674 whole entry): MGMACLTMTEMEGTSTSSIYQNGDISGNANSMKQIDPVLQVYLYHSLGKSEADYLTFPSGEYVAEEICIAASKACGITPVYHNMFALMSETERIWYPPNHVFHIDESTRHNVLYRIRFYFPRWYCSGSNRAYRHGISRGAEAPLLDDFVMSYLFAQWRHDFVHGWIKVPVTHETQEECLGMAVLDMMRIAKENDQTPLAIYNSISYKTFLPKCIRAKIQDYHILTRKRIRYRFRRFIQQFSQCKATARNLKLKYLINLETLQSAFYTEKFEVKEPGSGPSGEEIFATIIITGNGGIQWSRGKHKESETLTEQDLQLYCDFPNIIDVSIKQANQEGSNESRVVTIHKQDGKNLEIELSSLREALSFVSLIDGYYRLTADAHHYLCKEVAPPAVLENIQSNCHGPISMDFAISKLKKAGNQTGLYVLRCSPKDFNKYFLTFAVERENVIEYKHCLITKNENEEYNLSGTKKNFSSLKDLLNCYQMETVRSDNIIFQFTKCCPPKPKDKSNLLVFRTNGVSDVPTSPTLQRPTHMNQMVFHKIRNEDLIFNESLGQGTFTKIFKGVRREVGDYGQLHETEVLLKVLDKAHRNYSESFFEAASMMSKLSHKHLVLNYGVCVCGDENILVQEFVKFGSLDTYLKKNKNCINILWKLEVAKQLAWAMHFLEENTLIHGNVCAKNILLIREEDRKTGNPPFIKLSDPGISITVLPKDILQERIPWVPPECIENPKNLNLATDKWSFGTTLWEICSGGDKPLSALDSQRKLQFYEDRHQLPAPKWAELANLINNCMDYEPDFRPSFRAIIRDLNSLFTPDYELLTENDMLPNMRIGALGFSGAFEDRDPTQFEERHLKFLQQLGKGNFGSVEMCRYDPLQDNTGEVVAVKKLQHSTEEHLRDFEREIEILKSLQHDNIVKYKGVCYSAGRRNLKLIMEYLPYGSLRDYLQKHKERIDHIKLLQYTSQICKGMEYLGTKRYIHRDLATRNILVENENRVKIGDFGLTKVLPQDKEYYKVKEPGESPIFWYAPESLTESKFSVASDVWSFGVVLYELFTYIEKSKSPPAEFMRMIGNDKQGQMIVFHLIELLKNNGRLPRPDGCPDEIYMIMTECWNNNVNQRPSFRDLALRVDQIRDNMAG
Platelet-derived growth factor receptor alpha (Homo sapiens), sequence (P16234 whole entry): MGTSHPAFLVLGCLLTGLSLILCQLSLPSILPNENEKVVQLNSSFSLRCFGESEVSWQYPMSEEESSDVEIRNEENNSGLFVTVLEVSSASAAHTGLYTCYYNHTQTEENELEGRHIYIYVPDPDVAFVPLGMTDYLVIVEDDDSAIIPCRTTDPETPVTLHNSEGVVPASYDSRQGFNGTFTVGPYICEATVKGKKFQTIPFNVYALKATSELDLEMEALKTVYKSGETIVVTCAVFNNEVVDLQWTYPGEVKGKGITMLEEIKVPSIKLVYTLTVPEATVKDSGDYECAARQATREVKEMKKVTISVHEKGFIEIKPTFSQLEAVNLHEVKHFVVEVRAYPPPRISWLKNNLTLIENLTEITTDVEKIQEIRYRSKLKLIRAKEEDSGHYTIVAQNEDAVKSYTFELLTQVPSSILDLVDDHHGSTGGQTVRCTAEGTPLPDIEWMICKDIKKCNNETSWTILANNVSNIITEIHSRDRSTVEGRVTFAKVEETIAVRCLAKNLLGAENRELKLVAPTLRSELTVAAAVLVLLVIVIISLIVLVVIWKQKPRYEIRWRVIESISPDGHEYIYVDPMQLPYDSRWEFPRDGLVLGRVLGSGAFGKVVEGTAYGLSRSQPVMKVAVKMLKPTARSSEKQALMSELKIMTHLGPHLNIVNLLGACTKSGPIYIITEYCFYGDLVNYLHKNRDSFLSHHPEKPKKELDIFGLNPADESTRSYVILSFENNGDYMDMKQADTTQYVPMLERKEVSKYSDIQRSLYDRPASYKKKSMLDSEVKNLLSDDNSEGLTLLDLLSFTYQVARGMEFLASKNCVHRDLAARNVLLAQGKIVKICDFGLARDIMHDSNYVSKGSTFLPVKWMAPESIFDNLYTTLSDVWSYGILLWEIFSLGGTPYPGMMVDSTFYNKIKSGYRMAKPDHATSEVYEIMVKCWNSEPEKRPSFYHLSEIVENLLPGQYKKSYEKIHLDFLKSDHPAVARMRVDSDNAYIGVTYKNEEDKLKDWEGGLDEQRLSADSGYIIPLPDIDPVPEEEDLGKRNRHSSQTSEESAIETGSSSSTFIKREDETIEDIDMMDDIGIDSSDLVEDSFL
Serine/threonine-protein kinase PAK 5 (Homo sapiens), sequence (Q9P286 whole entry, looked up): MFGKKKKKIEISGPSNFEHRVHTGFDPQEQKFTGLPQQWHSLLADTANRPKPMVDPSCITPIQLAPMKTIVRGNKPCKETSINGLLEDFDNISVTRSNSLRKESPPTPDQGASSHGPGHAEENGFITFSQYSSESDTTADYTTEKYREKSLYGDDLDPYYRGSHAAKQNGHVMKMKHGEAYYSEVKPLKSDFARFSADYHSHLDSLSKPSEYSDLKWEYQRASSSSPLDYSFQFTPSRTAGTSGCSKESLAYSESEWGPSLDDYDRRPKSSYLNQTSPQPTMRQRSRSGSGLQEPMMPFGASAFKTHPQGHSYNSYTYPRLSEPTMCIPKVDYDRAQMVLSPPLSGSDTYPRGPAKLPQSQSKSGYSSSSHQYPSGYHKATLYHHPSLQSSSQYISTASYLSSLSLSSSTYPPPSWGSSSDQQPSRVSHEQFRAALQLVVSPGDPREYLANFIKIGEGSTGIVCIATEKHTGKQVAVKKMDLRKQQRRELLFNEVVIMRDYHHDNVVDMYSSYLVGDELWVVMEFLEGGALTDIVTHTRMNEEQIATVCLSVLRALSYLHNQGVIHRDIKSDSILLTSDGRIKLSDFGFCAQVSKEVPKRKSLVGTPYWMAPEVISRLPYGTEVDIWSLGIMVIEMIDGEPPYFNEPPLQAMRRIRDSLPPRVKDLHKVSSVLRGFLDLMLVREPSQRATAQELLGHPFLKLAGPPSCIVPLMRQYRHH
Dual specificity protein kinase CLK2 (Homo sapiens), sequence (P49760 whole entry, looked up): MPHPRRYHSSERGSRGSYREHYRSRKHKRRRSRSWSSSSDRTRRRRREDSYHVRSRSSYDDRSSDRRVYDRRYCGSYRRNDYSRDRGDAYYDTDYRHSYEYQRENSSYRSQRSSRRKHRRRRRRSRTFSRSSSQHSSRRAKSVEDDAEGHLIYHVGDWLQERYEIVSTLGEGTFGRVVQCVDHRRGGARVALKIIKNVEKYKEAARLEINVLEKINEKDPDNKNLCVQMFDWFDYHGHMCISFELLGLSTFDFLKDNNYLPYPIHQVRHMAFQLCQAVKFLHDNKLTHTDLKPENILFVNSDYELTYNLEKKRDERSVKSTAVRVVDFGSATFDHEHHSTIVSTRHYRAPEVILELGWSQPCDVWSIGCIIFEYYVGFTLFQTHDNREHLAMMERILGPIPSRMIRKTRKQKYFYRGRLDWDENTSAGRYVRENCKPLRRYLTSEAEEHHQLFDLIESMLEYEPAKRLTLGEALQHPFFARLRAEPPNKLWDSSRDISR

SMILES: NCCCC[C@H](NC(=O)[C@H](CC(=O)O)NC(=O)[C@H](CC(=O)O)NC(=O)[C@H](CC(=O)O)NC(=O)[C@H](CC(=O)O)NC(=O)[C@H](CC(=O)O)NC(=O)[C@H](CC(=O)O)NC(=O)CCCCCCCCOc1nc2cc(C(=O)O)ccc2c2cnccc12)C(=O)O (X1-DDDDDDK-OH)
- Activity (Homo sapiens): 1%
- Activity [1]: 9%
- Activity [2]: 10%
- Activity [3]: 19%
- Activity [4]: 23%
- Activity [5]: 26%
- Activity [6]: 31%
- Activity [7]: 34%
- Activity [8]: 50%
- Activity [9]: 72%
- Activity [10]: 79%
- Activity [11]: 79%
- Activity [12]: 83%
- Activity [13]: 85%
- Activity [14]: 86%
- Activity [15]: 90%
- Activity [16]: 92%
- Activity [17]: 92%
- Activity [18]: 94%
- Activity [19]: 96%
- Activity [20]: 97%
- Activity [21]: 97%
- Activity [22]: 99%
- Activity [23]: 100%
- Activity [24]: 100%
- Activity [25]: 101%
- Activity [26]: 102%
- Activity [27]: 103%
- Activity [28]: 110%
- Activity [29]: 15%
